Broadly, the Ki is a dissociation constant, usually derived from enzyme kinetics or from competition with a known ligand. The EC50 is the concentration giving half of the maximal effect.

SMILES strings stand for the structures. Read-outs that look alike come from different tables or passages of the source.

For one assay, the target named is LXR α LBD protein (Homo sapiens (Human), UniProt Q13133). Kind of assay: LXR α radioligand binding assay (SPA, competition with [3H]TO901317). As to conditions: read-out: LXRα Binding Ki.
Sequence of LXR α LBD protein (Q13133 209-447): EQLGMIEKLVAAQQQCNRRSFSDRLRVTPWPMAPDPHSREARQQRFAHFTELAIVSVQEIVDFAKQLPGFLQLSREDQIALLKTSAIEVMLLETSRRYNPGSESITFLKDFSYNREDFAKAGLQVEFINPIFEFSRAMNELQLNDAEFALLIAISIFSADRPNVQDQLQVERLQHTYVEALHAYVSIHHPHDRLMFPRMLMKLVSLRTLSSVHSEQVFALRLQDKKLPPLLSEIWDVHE
Another assay addresses LXR β LBD protein (Homo sapiens (Human), UniProt P55055). Kind of assay: biochemical. It counts as binding.
For assay [1], the target named is Gal4 DNA binding domain fused to the LBD of LXRα in HEK293 cells (Homo sapiens (Human), UniProt Q13133). Kind of assay: LXR luciferase transcriptional reporter gene assay, agonist mode, LXRα. The class given is cell-based. As to conditions: for EC50: read-out: Cell LXRα EC50. On the technique in general: Reporter assays use an easily measured gene product as a stand-in for the process of interest.
Sequence of Gal4 DNA binding domain fused to the LBD of LXRα in HEK293 cells (Q13133 209-447): as above

In assay [2] the target is Gal4 DNA binding domain fused to the LBD of LXRβ in HEK293 cells (Homo sapiens (Human), UniProt P55055). Kind of assay: cell-based.
Sequence of Gal4 DNA binding domain fused to the LBD of LXRβ in HEK293 cells (P55055 222-460 limits assumed): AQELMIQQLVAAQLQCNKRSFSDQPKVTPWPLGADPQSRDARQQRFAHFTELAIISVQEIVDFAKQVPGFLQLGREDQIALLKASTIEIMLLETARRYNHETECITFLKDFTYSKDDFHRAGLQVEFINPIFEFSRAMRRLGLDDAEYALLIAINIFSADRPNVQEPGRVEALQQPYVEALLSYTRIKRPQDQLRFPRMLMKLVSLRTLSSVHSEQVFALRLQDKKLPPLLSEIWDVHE

Sequence of LXR β LBD protein (P55055 222-460 limits assumed): as above

As to `CNC(=O)c1cnc(N2CCN(c3ccc(F)c(S(C)(=O)=O)c3)C[C@H]2C(C)C)nc1C(F)(F)F` [17-3, (R)-2-(4-(4-fluoro-3-(methylsulfonyl)phenyl)-2-isopropylpiperazin-1-yl)-N-methyl-4-(trifluoromethyl)pyrimidine-5-carboxamide], the Ki turned out to be 2690 nM at LXR α LBD protein and 188 nM at LXR β LBD protein (read-out: LXRβ Binding Ki). Moreover, the “Cell LXRα efficacy” value in assay [1] is 5514 (29) %. In addition, the EC50 is 5510 nM in assay [1] (agonist mode) and 448 nM in assay [2]. In assay [2] (agonist mode), the “Cell LXRβ efficacy” value is recorded as 448 (18) %.

Consider `COC(=O)c1cnc(N2CCN(c3ccc(F)c(S(C)(=O)=O)c3)CC2C(C)(C)C)nc1C(F)(F)F` (stereo not drawn) [9-5, methyl 2-(2-(tert-butyl)-4-(4-fluoro-3-(methylsulfonyl)phenyl)piperazin-1-yl)-4-(trifluoromethyl)pyrimidine-5-carboxylate], for which the Ki at LXR α LBD protein came to 41 nM; at LXR β LBD protein (read-out: LXRβ Binding Ki), 9 nM. Moreover, in assay [1], the “Cell LXRα efficacy” value was 504 (46) %. Further, the EC50 in assay [1] turned out to be 504 nM; in assay [2], 82 nM. For the same compound, the “Cell LXRβ efficacy” value in assay [2] (agonist mode) is on record as 82 (21) %.

Regarding `CC(C)(O)c1cnc(N2CCN(c3ccc(F)c(S(C)(=O)=O)c3)CC2C(C)(C)C)nc1C(F)(F)F` (stereo not drawn) [10-4, 2-(2-(2-(tert-butyl)-4-(4-fluoro-3-(methylsulfonyl)phenyl)piperazin-1-yl)-4-(trifluoromethyl)pyrimidin-5-yl)propan-2-ol], the Ki worked out at 59 nM on LXR α LBD protein and 6 nM on LXR β LBD protein (read-out: LXRβ Binding Ki). In addition, the “Cell LXRα efficacy” value in assay [1] is 1034 (28) %. Also, the values for the EC50 in assay [1] and in assay [2] were 1030 nM and 128 nM, respectively. Also, in assay [2] (agonist mode), the “Cell LXRβ efficacy” value is on record as 128 (13) %.

As for `CC(C)[C@@H]1CN(c2ccc(F)c(S(C)(=O)=O)c2)CCN1c1nc2ccc(F)cc2s1` [7-55, (R)-6-fluoro-2-(4-(4-fluoro-3-(methylsulfonyl)phenyl)-2-isopropylpiperazin-1-yl)benzo[d]thiazole], the Ki at LXR α LBD protein was determined as 120 nM. Also, the Ki on LXR β LBD protein (read-out: LXRβ Binding Ki) came to 14 nM. In assay [1], the “Cell LXRα efficacy” value is on record as 439 (68) % and the EC50 was determined as 439 nM. In assay [2], the “Cell LXRβ efficacy” value was 106 (55) % and the EC50 is 106 nM.

For `NS(=O)(=O)c1cccc(N2CCN(CC3CCN(CC(F)(F)F)CC3)[C@H](c3ccccc3)C2)c1` (single isomer, unassigned) [48-82], the Ki on LXR α LBD protein was 7400 nM; at LXR β LBD protein (Biological Test Example 1, read-out: LXRβ Binding Ki) it was 2490 nM. The EC50 in assay [1] (Biological Test Example 2, agonist mode) is greater than 20000 nM; in assay [2], greater than 20000 nM.

Consider `Cc1nc(N2CCN(c3ccc(F)c(S(C)(=O)=O)c3)C[C@H]2C(C)C)ncc1C(N)=O` [17-24, (R)-2-(4-(4-fluoro-3-(methylsulfonyl)phenyl)-2-isopropylpiperazin-1-yl)-4-methylpyrimidine-5-carboxamide], for which the Ki was greater than 3330 nM at LXR α LBD protein and 611 nM at LXR β LBD protein (read-out: LXRβ Binding Ki). The EC50 in assay [1] (agonist mode) and in assay [2] was greater than 20000 nM each time.

Take `CC(C)[C@@H]1CN(c2ccc(F)c(S(C)(=O)=O)c2)CCN1c1ncc(CN(C)CCCO)c(C(F)(F)F)n1` [15-9, (R)-3-(((2-(4-(4-fluoro-3-(methylsulfonyl)phenyl)-2-isopropylpiperazin-1-yl)-4-(trifluoromethyl)pyrimidin-5-yl)methyl)(methyl)amino)propan-1-ol]: the Ki on LXR α LBD protein is 2060 nM; on LXR β LBD protein, 146 nM. Besides, in assay [1], the “Cell LXRα efficacy” value is 4170 (10) %. Moreover, the results for the EC50 in assay [1] (agonist mode) and in assay [2] were 4170 nM and greater than 20000 nM, respectively.

`C[C@](O)(c1ccc(CN2CCN(c3cccc(S(C)(=O)=O)c3)C[C@H]2c2ccccc2)cc1)C(F)(F)F` [46-29, (S)-1,1,1-trifluoro-2-(4-(((R)-4-(3-(methylsulfonyl)phenyl)-2-phenylpiperazin-1-yl)methyl)phenyl)propan-2-ol]: the Ki was determined as 6320 nM on LXR α LBD protein and 1860 nM on LXR β LBD protein. Besides, the EC50 in assay [1] and in assay [2] was greater than 20000 nM in each case.

As to `CNS(=O)(=O)c1cc(N2CCN(c3ncc(C(C)O)c(C(F)(F)F)n3)[C@H](C(C)C)C2)ccc1F` (stereo partly drawn) [12-8, 2-fluoro-5-((3R)-4-(5-(1-hydroxyethyl)-4-(trifluoromethyl)pyrimidin-2-yl)-3-isopropylpiperazin-1-yl)-N-methylbenzenesulfonamide], the values for the Ki at LXR α LBD protein and on LXR β LBD protein (read-out: LXRβ Binding Ki) were 126 nM and 4 nM, respectively. In assay [1], the “Cell LXRα efficacy” value is on record as 503 (56) %. Besides, the EC50 in assay [1] (agonist mode) came out at 503 nM; in assay [2] it was 59 nM. Besides, the “Cell LXRβ efficacy” value in assay [2] (agonist mode) is reported as 59 (46) %.

`CC(C)[C@@H]1CN(c2ccc(F)c(S(C)(=O)=O)c2)CCN1c1nccc(C(N)=O)n1` [4-5, (R)-2-(4-(4-fluoro-3-(methylsulfonyl)phenyl)-2-isopropylpiperazin-1-yl)pyrimidine-4-carboxamide]: on LXR α LBD protein, the Ki was found to be 3250 nM. For the same compound, the Ki at LXR β LBD protein (read-out: LXRβ Binding Ki) came out at 495 nM. In assay [1], the “Cell LXRα efficacy” value is recorded as 15117 (37) % and the EC50 is 15100 nM. Moreover, in assay [2], the “Cell LXRβ efficacy” value is 1723 (24) % and it took 1720 nM to reach a half-maximal effect (EC50).

Turning to `Cc1noc(-c2ccc(N3CCN(c4ncc(CO)c(C(F)(F)F)n4)[C@H](C(C)C)C3)cc2S(C)(=O)=O)n1` [11-10, (R)-(2-(2-isopropyl-4-(4-(3-methyl-1,2,4-oxadiazol-5-yl)-3-(methylsulfonyl)phenyl)piperazin-1-yl)-4-(trifluoromethyl)pyrimidin-5-yl)methanol], the Ki was greater than 3330 nM at LXR α LBD protein and 773 nM on LXR β LBD protein (read-out: LXRβ Binding Ki). Also, in assay [1], the “Cell LXRα efficacy” value is on record as 6291 (28) %. In addition, the figures for the EC50 in assay [1] (agonist mode) and in assay [2] were 6290 nM and 2250 nM, respectively. The “Cell LXRβ efficacy” value in assay [2] (agonist mode) was 2253 (36) %.

Take `CC(C)[C@@H]1CN(c2ccc(F)c(S(C)(=O)=O)c2)CCN1c1ncc([C@@H](C)O)c(C(F)(F)F)n1` [Cpd No 12-3, (R)-1-(2-((R)-4-(4-fluoro-3-(methylsulfonyl)phenyl)-2-isopropylpiperazin-1-yl)-4-(trifluoromethyl)pyrimidin-5-yl)ethan-1-ol]: the Ki on LXR α LBD protein was found to be 168 nM; on LXR β LBD protein it was 6 nM. The “Cell LXRα efficacy” value in assay [1] was 769 (43) %. Besides, the EC50 in assay [1] is 769 nM; in assay [2], 84 nM. Also, the “Cell LXRβ efficacy” value in assay [2] (agonist mode) is reported as 84 (29) %.

For the compound `CC(C)[C@H]1CN(c2ccc(CO)c(S(C)(=O)=O)c2)CCN1C[C@@H]1CC[C@@H](C(F)(F)F)OC1` [Cpd No 49-3, (4-((S)-3-isopropyl-4-(((3S,6S)-6-(trifluoromethyl)tetrahydro-2H-pyran-3-yl)methyl)piperazin-1-yl)-2-(methylsulfonyl)phenyl)methanol], the Ki on LXR α LBD protein stood at 166 nM; on LXR β LBD protein (read-out: LXRβ Binding Ki), 17 nM. Besides, in assay [1], the “Cell LXRα efficacy” value was 178 (75) %. The EC50 in assay [1] was found to be 178 nM; in assay [2], 58 nM. Further, in assay [2], the “Cell LXRβ efficacy” value is 58 (78) %.

On to `CS(=O)(=O)c1cccc(N2CCN(C[C@H]3CC[C@](C)(O)CC3)[C@H](c3ccccc3)C2)c1` (single isomer, unassigned) [Cpd No 48-8], for which the Ki on LXR α LBD protein was greater than 3330 nM; at LXR β LBD protein (read-out: LXRβ Binding Ki), greater than 2500 nM. For the same compound, the EC50 in assay [1] is greater than 20000 nM; in assay [2] (agonist mode, read-out: Cell LXRβ EC50) it was greater than 20000 nM.

For `CC(C)[C@H]1CN(c2cccc(S(C)(=O)=O)c2)CCN1C[C@@H]1CC[C@H](C(F)(F)F)OC1` (single isomer, unassigned) [Cpd No 49-8], the Ki on LXR α LBD protein was determined as 84 nM. For the same compound, the Ki on LXR β LBD protein (read-out: LXRβ Binding Ki) stood at 11 nM. Moreover, in assay [1], the “Cell LXRα efficacy” value is 103 (79) % and the EC50 was 103 nM. Moreover, in assay [2], the “Cell LXRβ efficacy” value is on record as 36 (93) % and the EC50 is 36 nM.
